These results are taken from PMC6001375, “CLERK is a novel receptor kinase required for sensing of root-active CLE peptides in Arabidopsis” (Development (Cambridge, England), 2018).

One assay deals with CLAVATA 1 (CLV1). As to conditions: ref Brand et al., 2000; Clark et al., 1995; Fletcher et al., 1999; cited from earlier work. The source says: (§1) The endogenous CLAVATA3/EMBRYO SURROUNDING REGION (CLE) peptides of plants are secreted as propeptides and processed to yield bioactive 12-14 amino acid long ligands ([Cock and McCormick, 2001]; [Ito et al., 2006]; [Kondo et al., 2006]). The Arabidopsis thaliana genome contains 32 CLE genes, which encode 27 distinct CLE peptides ([Goad et al., 2016]; [Ito et al., 2006]; [Strabala et al., 2006]). Exogenous application of chemically synthesized CLE peptides at nanomolar concentrations frequently suppresses Arabidopsis root growth in tissue culture ([Depuydt et al., 2013]; [Fiers et al., 2005]; [ ...

The subject of the next assay is SERKs with PXY. As to conditions: ref Hazak et al., 2017; Santiago et al., 2016; Zhang et al., 2016a,b; cited from earlier work. The text has this:
In numerous cases, ligand sensing by LRR-RKs requires interaction with co-receptor kinases ([Brandt and Hothorn, 2016]; [Hazak and Hardtke, 2016]; [Katsir et al., 2011]; [Li and Tax, 2013]). […] SERKs have also been implicated in PXY-mediated CLE41/44 signaling, although binding of PXY-CLE41/44 to ...

The subject of assay [1] is PXY ectodomain with NIK1/2/3 ectodomains. The assay is described as follows: Analytical size-exclusion chromatography, PXY + NIK1/2/3 ectodomains. Format: binding, Arabidopsis thaliana. The conditions noted are these: Fig. S3F; 50 µM peptide; pH 5.0. How it is done:
(§2) Isolation of recombinant proteins and analytical gel filtrations were carried out as described previously ([Hazak et al., 2017]) with small adjustments. The coding sequences for BAM1-ECD (amino acids 20-637), BAM3-ECD (30-651), PXY-ECD (30-647), NIK1-ECD (32-248), NIK2-ECD (33-248), NIK3-ECD (26-238), CLERK-ECD (28-236) and At5G63710-ECD (51-224) were amplified from Arabidopsis thaliana cDNA using PfuX7 polymerase. All ECD-coding sequences were then cloned into a modified pFAST-BAC1 vector (Geneva Biotech) by GIBSON cloning, resulting in the addition of the azurocidin signal peptide sequence to the 5′-end, and of a 2×-STREP-9×HIS tag to the 3′-end of the ECD sequences. These plasmids, after being confirmed by sequencing, were transformed into Escherichia coli DH10MultiBac (Geneva Biotech) followed by the extraction of the resulting bacmids. Transfection of the bacmids into Spodoptera frugiperda Sf9 cells with Profectin (AB Vector) was carried out to produce and amplify the respective virus. Recombinant secreted expression of the proteins was carried out by addition of virus to Trichoplusia ni Tnao38 cells to reach a viral multiplicity of 1 and incubation of the cells for 3 days. […] Concentrations of the pure proteins were assessed by measuring their absorbance at 280 nm (NanoDrop Lite; Thermo Scientific) and subsequent correction with their respective extinction coefficient. […]
(Size exclusion chromatography separates by hydrodynamic size, large species first.)

The subject of assay [2] is PXY ectodomain with CLERK/At5g63710 ectodomains. The assay is described as follows: Analytical size-exclusion chromatography, PXY + CLERK/At5g63710 ectodomains. Format: binding, Arabidopsis thaliana. The conditions noted are these: 50 µM peptide. As to the method: as §2
Assay [3] has as its system PHLOEM INTERCALATED WITH XYLEM (PXY). As to conditions: ref Etchells and Turner, 2010; Fisher and Turner, 2007; Hirakawa et al., 2008; Morita et al., 2016; cited from earlier work.
Excerpt: as §1

In assay [4] the target is T1, BARELY ANY MERISTEM 1 (BAM1) ectodomain (Arabidopsis thaliana, UniProt O49545 20-637).
T1 construct: BAM1, LRR receptor kinase of Arabidopsis thaliana, extracellular domain, amino acids 20-637; The azurocidin signal peptide was added at the N-terminus for secretion; also called BAM1-ECD
T1 sequence (looked up): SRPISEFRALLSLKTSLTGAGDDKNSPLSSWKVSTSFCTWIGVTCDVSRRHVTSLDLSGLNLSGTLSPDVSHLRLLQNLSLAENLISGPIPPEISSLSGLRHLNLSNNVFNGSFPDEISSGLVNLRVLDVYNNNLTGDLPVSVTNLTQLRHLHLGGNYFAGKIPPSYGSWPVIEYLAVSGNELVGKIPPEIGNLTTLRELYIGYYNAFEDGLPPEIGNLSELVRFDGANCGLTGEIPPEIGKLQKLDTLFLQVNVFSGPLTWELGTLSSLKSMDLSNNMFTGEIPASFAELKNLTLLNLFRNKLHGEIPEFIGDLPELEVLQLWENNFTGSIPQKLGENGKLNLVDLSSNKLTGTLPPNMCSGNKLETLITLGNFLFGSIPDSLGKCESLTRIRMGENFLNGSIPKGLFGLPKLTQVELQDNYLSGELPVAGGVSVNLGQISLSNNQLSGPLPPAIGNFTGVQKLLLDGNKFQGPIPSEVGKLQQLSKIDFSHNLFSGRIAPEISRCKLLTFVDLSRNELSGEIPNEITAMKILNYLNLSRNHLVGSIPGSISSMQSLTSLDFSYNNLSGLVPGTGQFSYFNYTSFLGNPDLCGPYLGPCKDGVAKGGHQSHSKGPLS
In words: ITC; Nano ITC, 25°C, 20 mM citrate (pH 5.0), 150 mM NaCl; peptide in the syringe, ectodomain in the cell: 400 µM CLE26 or CLE45 into 30 µM CLERK-ECD; 80 µM CLE9 into 13.8 µM BAM1-ECD. The conditions noted are these: both partners purified. In general terms: ITC needs no label: the signal is the heat of the interaction.

The target in assay [5] is T2, BARELY ANY MERISTEM 1 (BAM1) ectodomain (Arabidopsis thaliana, UniProt O49545 20-637).
T2 chain: T1 sequence (looked up)
In words: ITC.

Where no end group is shown, it is not given here. [ ]: non-standard residue; d: D form. Hyp = O=C(O)[C@@H]1C[C@@H](O)CN1

In the case of “CLV3: prototypical CLV3 peptide, directly bound by CLV1 to regulate stem cell homeostasis in shoot meristems (RTVPSGPDPLHHH; not fully specified; ends and bridges not checked; UniProt Q9XF04 70-82, looked up)”, the “Binding to CLV1” value in the assay on CLAVATA 1 (CLV1) is reported as “directly binds”.
On to “HEVPSGPNPISN [CLE41, identical CLE41 and CLE44 peptides, perceived by PXY]”, for which, in the assay on SERKs with PXY, the “Binding of PXY-CLE41/44 to SERKs” value is “comparatively weak”. Also, in assay [1], the “Elution of PXY ectodomain with NIK1/2/3 ectodomains” value is “elute as monomers”. Besides, the “Elution of PXY ectodomain with CLERK/At5g63710 ectodomains” value in assay [2] (Fig. S3C, pH 5.0) is given as “elute as monomers”. In assay [2] (gel filtration, 20 mM citrate (pH 5.0), 150 mM NaCl), the “Peptide-dependent binding of CLERK ectodomain to PXY ectodomain” value is “Neither did CLERK ectodomain bind to the BAM1 ectodomain or the PXY ectodomain”. The “Perception by PXY” value in assay [3] was “perceives”.

B1: CLE9 peptide (peptide)
peptide: RLV[Hyp]SG[Hyp]NPLHN
notes: CLE9 peptide of Arabidopsis thaliana, 12 residues; source: synthetic peptide (PSL GmbH)
By Kd is commonly meant a measure of binding affinity in units of concentration. Low values mean higher affinity, high ones lower affinity. As for B1, the binding result in assay [4] is “binds”. The affinity in assay [5], expressed as Kd, was 0.0127 µM.
